We go through one compound from ChEMBL document CHEMBL5712075, “The histone methyltransferase EZH2 as a novel prosurvival factor in clinically aggressive chronic lymphocytic leukemia” (Oncotarget, 2016).

The structures appear in SMILES notation.

In assay [1] the target is Histone-lysine N-methyltransferase EZH2 (Homo sapiens) (UniProt Q15910). In words: Inhibition of EZH2 in human CD19+ B cells assessed as decrease in H3K27me3 levels measured as percentage abundance at 4 uM by Western blot analysis relative to control. Also noted: scale not given: the % may be the effect or the level left. Conditions: CD19 positive B cell. It counts as cell-based.
Chain of Histone-lysine N-methyltransferase EZH2 (Homo sapiens) (Q15910 whole entry, looked up): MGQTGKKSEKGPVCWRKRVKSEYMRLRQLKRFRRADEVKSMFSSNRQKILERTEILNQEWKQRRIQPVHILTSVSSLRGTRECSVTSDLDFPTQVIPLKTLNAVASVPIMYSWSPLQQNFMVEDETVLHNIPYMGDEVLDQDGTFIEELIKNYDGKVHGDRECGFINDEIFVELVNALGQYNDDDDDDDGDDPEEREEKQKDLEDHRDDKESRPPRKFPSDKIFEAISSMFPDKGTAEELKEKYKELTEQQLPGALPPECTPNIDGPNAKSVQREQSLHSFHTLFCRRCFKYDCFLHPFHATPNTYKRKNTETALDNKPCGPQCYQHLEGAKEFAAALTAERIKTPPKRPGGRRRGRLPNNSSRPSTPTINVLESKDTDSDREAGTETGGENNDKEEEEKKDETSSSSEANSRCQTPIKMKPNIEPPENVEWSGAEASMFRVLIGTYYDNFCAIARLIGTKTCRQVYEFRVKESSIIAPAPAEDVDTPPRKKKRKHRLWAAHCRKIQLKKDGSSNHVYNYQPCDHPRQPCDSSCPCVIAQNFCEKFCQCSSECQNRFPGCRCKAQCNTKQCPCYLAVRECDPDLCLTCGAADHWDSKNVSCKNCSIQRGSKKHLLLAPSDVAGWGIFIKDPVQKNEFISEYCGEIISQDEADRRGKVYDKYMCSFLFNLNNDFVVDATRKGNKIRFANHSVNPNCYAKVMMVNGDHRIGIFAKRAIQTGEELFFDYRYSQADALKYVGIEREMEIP

For assay [2] the target is unchanged. Nature of the assay: Inhibition of EZH2 in human CD19+ B cells assessed as decrease in H3K27me3 levels measured as percentage abundance at 4 uM after 2 days by Western blot analysis relative to control. It is filed as cell-based. Also noted: scale not given: the % may be the effect or the level left. Conditions: CD19 positive B cell, time 2.0 day. Background: In western blotting, separated proteins are transferred to a membrane and probed.

The target is the same in assay [3]. Nature of the assay: Inhibition of EZH2 in human CD19+ B cells assessed as decrease in H3K27me3 levels measured as percentage abundance at 4 uM after 4 days by Western blot analysis relative to control. Details: scale not given: the % may be the effect or the level left. It counts as cell-based. Conditions: CD19 positive B cell, time 4.0 day.
Assay [4] shares this target. In words: Inhibition of EZH2 in human CD19+ B cells assessed as decrease in H3K27me3 levels measured as percentage abundance at 4 uM after 6 days by Western blot analysis relative to control. It is filed as cell-based. Details: scale not given: the % may be the effect or the level left. Conditions: CD19 positive B cell, time 6.0 day.
Assay [5] shares this target. Nature of the assay: Inhibition of EZH2 in human CD19+ B cells assessed as decrease in H3K27me3 levels measured as percentage abundance at 4 uM after 8 days by Western blot analysis relative to control. It is filed as cell-based. Details: scale not given: the % may be the effect or the level left. Conditions: CD19 positive B cell, time 8.0 day.
For assay [6] the target is unchanged. Nature of the assay: Inhibition of EZH2 in human CD19+ B cells assessed as decrease in H3K27me3 levels measured as percentage abundance at 4 uM after 10 days by Western blot analysis relative to control. It is filed as cell-based. Details: scale not given: the % may be the effect or the level left. Conditions: CD19 positive B cell, time 10.0 day.
Assay [7] has the same target. Nature of the assay: Inhibition of EZH2 in human CD19+ B cells assessed as decrease in cell viability at 4 uM after 5 to 13 days by annexin-V/PI staining based flow cytometry. Conditions: CD19 positive B cell, time 5-13 day, TDE = time-dependent effect. For orientation: Flow cytometry measures light scatter and fluorescence of single cells or particles in a stream.

Take `CCCc1cc(C)[nH]c(=O)c1CNC(=O)c1cc(-c2ccnc(N3CCN(C)CC3)c2)cc2c1cnn2C(C)C`: the Activity in assay [1] amounted to 66%; in assay [2] it was 99.6%; in assay [3] it was 100%; in assay [4], 99.5%; in assay [5] it was 65.1%; in assay [6] it was 65.2%. In assay [7], the inhibition result is “Tde”.
